According to ChEMBL document CHEMBL1137966, “Thrombin inhibitors built on an azaphenylalanine scaffold” (Bioorg Med Chem Lett, 2004):
pKi: −log10 of the molar value.

Assays:
Coagulation factor X = Coagulation factor X (Homo sapiens, UniProt P00742); assay: In vitro inhibition of Coagulation factor X
Serine protease 1 = Serine protease 1 (Homo sapiens, UniProt P07477); assay: In vitro inhibition of trypsin
Prothrombin = Prothrombin (Homo sapiens, UniProt P00734)
Description: In vitro inhibition of human alpha-thrombin

Sequence of Coagulation factor X (P00742 41-179 limits assumed): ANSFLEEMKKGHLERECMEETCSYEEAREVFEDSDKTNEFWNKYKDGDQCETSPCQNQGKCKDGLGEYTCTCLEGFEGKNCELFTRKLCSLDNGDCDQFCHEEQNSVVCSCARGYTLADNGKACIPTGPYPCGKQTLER
Sequence of Coagulation factor X (P00742 235-488 limits assumed): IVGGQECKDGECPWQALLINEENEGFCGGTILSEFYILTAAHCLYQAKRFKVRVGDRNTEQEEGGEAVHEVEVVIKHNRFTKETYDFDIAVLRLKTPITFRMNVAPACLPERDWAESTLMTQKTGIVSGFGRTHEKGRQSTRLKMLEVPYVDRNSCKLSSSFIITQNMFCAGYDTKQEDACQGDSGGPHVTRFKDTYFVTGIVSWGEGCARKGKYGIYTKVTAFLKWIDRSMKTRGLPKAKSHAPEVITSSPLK
Sequence of Serine protease 1 (P07477 whole entry): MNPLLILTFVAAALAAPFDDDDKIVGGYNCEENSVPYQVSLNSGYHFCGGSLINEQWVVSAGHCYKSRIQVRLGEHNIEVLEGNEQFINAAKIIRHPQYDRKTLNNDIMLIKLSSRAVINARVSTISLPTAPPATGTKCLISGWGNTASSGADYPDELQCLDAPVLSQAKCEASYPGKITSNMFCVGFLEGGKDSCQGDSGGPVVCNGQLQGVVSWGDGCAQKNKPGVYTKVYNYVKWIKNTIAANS

SMILES | pKi (Coagulation factor X) | pKi (Serine protease 1) | pKi (Prothrombin)
N=C(N)c1ccc(CN(NS(=O)(=O)c2ccc3ccccc3c2)C(=O)N2CCCCCC2)cc1 | 4.16 | 5.00 | 
COc1ccc2cc(S(=O)(=O)NN(Cc3ccc(C(=N)N)cc3)C(=O)N3CCC(C)CC3)ccc2c1 | < 4.12 | 4.74 | 7.35
N/C(=N\O)c1ccc(CN(NS(=O)(=O)c2ccc3ccccc3c2)C(=O)N2CCCCC2)cc1 | < 4.12 | < 4.17 | 
CC1CCN(C(=O)N(Cc2cccc(C(=N)N)c2)NS(=O)(=O)c2ccc3ccccc3c2)CC1 | 5.28 | 6.96 | 
CC1CCCCN1C(=O)N(Cc1ccc(C(=N)NO)cc1)NS(=O)(=O)c1ccc2ccccc2c1 (stereo unspecified) | < 4.12 | 4.35 | 6.37
CC1CCN(C(=O)N(Cc2cccc(C(=N)NO)c2)NS(=O)(=O)c2ccc3ccccc3c2)CC1 | < 4.12 | < 4.17 | 
N=C(N)c1cccc(CN(NS(=O)(=O)c2ccc3ccccc3c2)C(=O)N2CCCCCC2)c1 | 5.41 | 6.85 | 
N/C(=N\O)c1ccc(CN(NS(=O)(=O)c2ccc3ccccc3c2)C(=O)N2CCCCCC2)cc1 | < 4.12 | 4.89 | 6.68
CC1CCCCN1C(=O)N(Cc1ccc(C(=N)N)cc1)NS(=O)(=O)c1ccc2ccccc2c1 (stereo unspecified) | 4.28 | 4.59 | 7.07
CC1CCN(C(=O)N(Cc2ccc(C(=N)NO)cc2)NS(=O)(=O)c2ccc3ccccc3c2)CC1 | < 4.12 | < 4.17 | 6.11
N=C(N)c1ccc(CN(NS(=O)(=O)c2ccc(-c3ccccc3)cc2)C(=O)N2CCCCCC2)cc1 |  | 4.64 | 6.82
CC1CCCCN1C(=O)N(Cc1cccc(C(=N)NO)c1)NS(=O)(=O)c1ccc2ccccc2c1 (stereo unspecified) | 5.27 | 4.17 | 

More lines, now with the values ahead:

pKi (Coagulation factor X) | pKi (Serine protease 1) | pKi (Prothrombin) | SMILES
3.99 | 4.77 |  | COc1ccc2cc(S(=O)(=O)NN(Cc3cccc(C(=N)NO)c3)C(=O)N3CCCCCC3)ccc2c1
 | < 3.40 | 5.80 | N/C(=N\O)c1ccc(CN(NS(=O)(=O)c2ccc(-c3ccccc3)cc2)C(=O)N2CCCCCC2)cc1
< 4.12 | 4.49 |  | N/C(=N\O)c1cccc(CN(NS(=O)(=O)c2ccc3ccccc3c2)C(=O)N2CCCCCC2)c1
< 4.12 | < 4.17 | 6.42 | COc1ccc2cc(S(=O)(=O)NN(Cc3ccc(C(=N)NO)cc3)C(=O)N3CCC(C)CC3)ccc2c1
4.18 | 4.89 | 7.02 | N=C(N)c1ccc(CN(NS(=O)(=O)c2ccc3ccccc3c2)C(=O)N2CCCCC2)cc1
3.95 | 4.33 | 5.38 | COc1ccc2cc(S(=O)(=O)NN(Cc3cccc(C(=N)NO)c3)C(=O)N3CCCCC3C)ccc2c1 (stereo unspecified)
5.52 | 7.28 |  | COc1ccc2cc(S(=O)(=O)NN(Cc3cccc(C(=N)N)c3)C(=O)N3CCCCCC3)ccc2c1
